From US11883526B2 (priority 2019, dated 2024)
Where “and” joins values, the source holds several entries; their conditions need not be identical. Identical values can stand only once. Entries after “also recorded” stand apart in the source; their conditions may differ. Counter-ions that a name gives are not always drawn. Like-named read-outs stand apart in the source and are kept apart here. Marks after values point to notes of the source that are not given here.

Tests used:
[1] = Excerpt: This example provides an LC-MS/MS method for the determination of ketamine and norketamine in sodium heparin human plasma using ketamine-d4 and norketamine-d4 as the respective internal standards (IS).
[2] = system: adult female Sprague Dawley rats; conditions: 3 hours after a single intraperitoneal injection; cited from earlier work
[3] = system: female Sprague-Dawley rats; test: Single dose neurotoxicity study: mortality, clinical observations, body weight; format: in vivo, rat; conditions: for Clinical observation incidence: Abnormal respiration / Clinical observation incidence: Ataxia / Clinical observation incidence: Catalepsy / Clinical observation incidence: Chromodacryorrhea / Clinical observation incidence: Decreased general activity / Clinical observation incidence: Decubitus / Clinical observation incidence: Increased general activity / Clinical observation incidence: Narrowed palpebral fissure / Clinical observation incidence: Piloerection / Clinical observation incidence: Salivation (out of normal) / Clinical observation incidence: audible respiration / Clinical observation incidence: bradypnoea: single dose
Description: The injection volume was 5 mL/kg.
(§1) Body weight and body weight gain were measured daily.

[4] = system: female Sprague-Dawley rats; test: Single dose neurotoxicity study: brain histopathology (neuronal necrosis in PCG/RSC); conditions: single dose up to 72 mg, 48 or 96 hours post-dose; hydrochloride
Description: In order to prepare for brain histopathology examination, all main study animals were perfused at necropsy. Prior to the perfusion, rats were anesthetized with isoflurane. After injection of 0.1 ml heparin, the blood of the rat was flushed out with a physiological saline solution by intraarterial insertion of a needle in the abdominal aorta. Thereafter the rat was perfused with glutaraldehyde 3% in potassium phosphate 0.09M and 1.4% sucrose. Due to logistic constraints at maximum 30 animals could undergo the whole-body perfusion procedure on a given day. Therefore, a staggered start of treatment was applied to all 5 groups of main study animals. Consequently, subgroups of 4 main study animals of the vehicle- and 36 and 54 mg-dosed groups, and 5 main study animals of the 72 mg-dosed and positive control groups, were dosed on 6 consecutive days, respectively.
The vehicle control, positive control, and esketamine HCl-dosed animals were sacrificed at either 48 hours (i.e., the first 12 or 15 rats per group) or 96 hours after the dose administration time (i.e., the last 12 or 15 rats per group). The brain tissue of the vehicle control-, positive control- and esketamine HCl-treated rats were processed at the same time and handled in the same way in batches of 4 or 5 animals per group.
Brain tissue was sampled and processed routinely. […]

[5] = system: female Sprague-Dawley rats; test: 14-day repeated dose neurotoxicity study: mortality, clinical observations, body weight; format: in vivo, rat; conditions: for Clinical observation incidence: Abnormal respiration / Clinical observation incidence: Ataxia / Clinical observation incidence: Chromodacryorrhea / Clinical observation incidence: Decreased general activity / Clinical observation incidence: Decubitus / Clinical observation incidence: Increased general activity / Clinical observation incidence: Salivation (out of normal) / Clinical observation incidence: audible respiration / Clinical observation incidence: bradypnoea: 14 days
Description: as §1

[6] = Solubility of esketamine HCl; conditions: room temperature, pH 4.5, factor 1.15
Description: The clinical investigational product is an aqueous solution of the drug substance, esketamine hydrochloride (HCl). This formulation is administered intranasally to patients using a dual nasal spray device, which delivers one spray into each nostril. […] The formulation was stored at 37° C. for stability reasons until dosing.

[7] = system: female Sprague-Dawley rats; test: 14-day repeated dose neurotoxicity study: brain histopathology (neuronal necrosis in PCG/RSC); conditions: up to 54 mg/day for 14 days, 48 hours after last instillation; hydrochloride
Description: Due to logistic constraints associated with the whole body perfusion procedure of the animals at necropsy, a staggered start was applied to the study. Consequently, all 5 groups of main study animals were divided into three subgroups of 4 animals each. For each of these subgroups treatment started on a different day. The perfusion procedure is the is the same as described for the single dose study.
All vehicle- and esketamine HCl-treated animals were sacrificed at 48 hours after the last instillation. […] The brain tissue of the vehicle control-, positive control- and esketamine HCl-treated rats were processed at the same time and handled in the same way in batches of 4 animals per group.
Brain tissue was sampled and processed routinely. The trimmed and embedded tissue was sectioned and stained with hematoxylin-eosin (HE). Histoprocessing and staining were carried out in three batches of 4 animals per group (each batch thus containing 4 animals from vehicle control-, positive control- and the three esketamine HCl-treated groups).
Histopathological examination was performed on 7 levels of brain tissue according to Bolon (2013. Toxicol. Pathol. 41(7), 1028-1048) from the vehicle control-, positive control-, and high dose esketamine HCl-treated groups in the single dose study, and in all groups in the repeated dose study.
The microscopic finding of neuronal necrosis in the PCG/RSC of the brain was graded unilaterally according to the number of necrotic neurons observed over the total length of the PCG/RSC structure visible in the tissue section (usually around 3-5 mm) utilizing the following criteria:

Structure (SMILES): CNC1(c2ccccc2Cl)CCCCC1=O (racemic) [ketamine, reference compound]
- QC sample freeze/thaw stability ([1]; freeze (−20° C.)/thaw (ice-water bath)): 3 freeze (−20° C.)/thaw (ice-water bath) cycles
- QC sample freeze/thaw stability ([1]; freeze (−20° C.)/thaw (room temperature)): 3 freeze (−20° C.)/thaw (room temperature) cycles
- QC sample long-term storage stability ([1]; human plasma QC sample at −20° C.): 1552 days at −20 °C
- QC sample bench-top stability ([1]; human plasma QC sample, room temperature): 68.5 hours at room temp
- Stock solution stability (spike solutions) ([1]; ketamine/norketamine spike solutions at −20° C.): 610 days at −20 °C for ketamine/norketamine spike solutions
- Processed sample stability ([1]; room temperature): 146.5 hours at room temperature
- Whole Blood Stability ([1]; room temperature and ice-water bath (0-4° C.)): 120 minutes at room temperature and in an ice-water bath (0-4° C.)
- Stock solution stability ([1]; stock solutions at room temperature under white light): 6 h
- Stock solution stability ([1]; stock solutions at −20° C.): 15100 h
- ED50 for induction of neuronal vacuolation in the PCG/RSC [2]: 47.5 mg/kg body weight

Structure (SMILES): CN[C@]1(c2ccccc2Cl)CCCCC1=O [esketamine HCl, (S)-2-(2-chlorophenyl)-2-(methylamino)cyclohexanone hydrochloride]
- duration of decreased activity, decubitus, bradypnea, catalepsy (anesthesia) after last instillation ([3]; 36 mg): 15 to 30 min
- duration of ataxia after decreased activity had subsided ([3]; 54 mg, hydrochloride): 1.5 to 3 h and 1 to 3 h
- duration of ataxia after decreased activity had subsided ([3]; 72 mg): ≥ 3 h
- Clinical observation incidence: Abnormal respiration ([3]; 36 mg intranasal): 22/24 ***
- Clinical observation incidence: Ataxia ([3]; 36 mg intranasal): 24/24 ***
- Clinical observation incidence: Catalepsy ([3]; 36 mg intranasal): 20/24 ***
- Clinical observation incidence: Chromodacryorrhea ([3]; 36 mg intranasal): 0/24
- Clinical observation incidence: Decreased general activity ([3]; 36 mg intranasal): 23/24 ***
- Clinical observation incidence: Decubitus ([3]; 36 mg intranasal): 23/24 ***
- Clinical observation incidence: Increased general activity ([3]; 36 mg intranasal): 24/24 ***
- Clinical observation incidence: Narrowed palpebral fissure ([3]; 36 mg intranasal): 7/24**
- Clinical observation incidence: Piloerection ([3]; 36 mg intranasal): 0/24
- Clinical observation incidence: Salivation (out of normal) ([3]; 36 mg intranasal): 23/24 ***
- Clinical observation incidence: audible respiration ([3]; 36 mg intranasal): 10/24 ***
- Clinical observation incidence: bradypnoea ([3]; 36 mg intranasal): 22/24 ***
- Clinical observation incidence: Abnormal respiration ([3]; 54 mg intranasal): 22/24 ***
- Clinical observation incidence: Ataxia ([3]; 54 mg intranasal): 24/24 ***
- Clinical observation incidence: Catalepsy ([3]; 54 mg intranasal): 23/24 ***
- Clinical observation incidence: Chromodacryorrhea ([3]; 54 mg intranasal): 0/24
- Clinical observation incidence: Decreased general activity ([3]; 54 mg intranasal): 23/24 ***
- Clinical observation incidence: Decubitus ([3]; 54 mg intranasal): 23/24 ***
- Clinical observation incidence: Increased general activity ([3]; 54 mg intranasal): 24/24 ***
- Clinical observation incidence: Narrowed palpebral fissure ([3]; 54 mg intranasal): 10/24 ***
- Clinical observation incidence: Piloerection ([3]; 54 mg intranasal): 0/24
- Clinical observation incidence: Salivation (out of normal) ([3]; 54 mg intranasal): 24/24 ***
- Clinical observation incidence: audible respiration ([3]; 54 mg intranasal): 3/24
- Clinical observation incidence: bradypnoea ([3]; 54 mg intranasal): 21/24 ***
- Clinical observation incidence: Abnormal respiration ([3]; 72 mg intranasal): 30/30 ***
- Clinical observation incidence: Catalepsy ([3]; 72 mg intranasal): 30/30 ***
- Clinical observation incidence: Chromodacryorrhea ([3]; 72 mg intranasal): 0/30
- Clinical observation incidence: Decreased general activity ([3]; 72 mg intranasal): 30/30 ***
- Clinical observation incidence: Decubitus ([3]; 72 mg intranasal): 30/30 ***
- Clinical observation incidence: Increased general activity ([3]; 72 mg intranasal): 29/30 ***
- Clinical observation incidence: Narrowed palpebral fissure ([3]; 72 mg intranasal): 22/30 ***
- Clinical observation incidence: Piloerection ([3]; 72 mg intranasal): 0/30
- Clinical observation incidence: Salivation (out of normal) ([3]; 72 mg intranasal): 29/30 ***
- Clinical observation incidence: audible respiration ([3]; 72 mg intranasal): 2/30
- Clinical observation incidence: bradypnoea ([3]; 72 mg intranasal): 30/30 ***
- mortality ([3]; single intranasal dose 72 mg, within 30 minutes): two main study animals and two satellite TK animals died
- mortality ([3]; single intranasal dose up to 54 mg): No test article related mortality
- histopathological lesions / neuronal necrosis in the brain [4]: no morphological evidence of neuronal degeneration; also recorded: absent; also recorded: No signs of neuronal necrosis; also recorded: no neuropathological lesions
- Clinical observation incidence: Abnormal respiration ([5]; 18 mg/day intranasal): 2/12
- Clinical observation incidence: Ataxia ([5]; 18 mg/day intranasal): 12/12***
- Clinical observation incidence: Chromodacryorrhea ([5]; 18 mg/day intranasal): 0/12
- Clinical observation incidence: Decreased general activity ([5]; 18 mg/day intranasal): 5/12
- Clinical observation incidence: Decubitus ([5]; 18 mg/day intranasal): 0/12
- Clinical observation incidence: Increased general activity ([5]; 18 mg/day intranasal): 12/12***
- Clinical observation incidence: Salivation (out of normal) ([5]; 18 mg/day intranasal): 12/12***
- Clinical observation incidence: audible respiration ([5]; 18 mg/day intranasal): 2/12
- Clinical observation incidence: bradypnoea ([5]; 18 mg/day intranasal): 0/12
- Clinical observation incidence: Abnormal respiration ([5]; 36 mg/day intranasal): 11/12***
- Clinical observation incidence: Ataxia ([5]; 36 mg/day intranasal): 12/12***
- Clinical observation incidence: Chromodacryorrhea ([5]; 36 mg/day intranasal): 0/12
- Clinical observation incidence: Decreased general activity ([5]; 36 mg/day intranasal): 12/12***
- Clinical observation incidence: Decubitus ([5]; 36 mg/day intranasal): 2/12
- Clinical observation incidence: Increased general activity ([5]; 36 mg/day intranasal): 12/12***
- Clinical observation incidence: Salivation (out of normal) ([5]; 36 mg/day intranasal): 12/12***
- Clinical observation incidence: audible respiration ([5]; 36 mg/day intranasal): 6/12**
- Clinical observation incidence: bradypnoea ([5]; 36 mg/day intranasal): 11/12***
- Clinical observation incidence: Abnormal respiration ([5]; 54 mg/day intranasal): 12/12***
- Clinical observation incidence: Ataxia ([5]; 54 mg/day intranasal): 12/12***
- Clinical observation incidence: Chromodacryorrhea ([5]; 54 mg/day intranasal): 0/12
- Clinical observation incidence: Decreased general activity ([5]; 54 mg/day intranasal): 12/12***
- Clinical observation incidence: Decubitus ([5]; 54 mg/day intranasal): 8/12***
- Clinical observation incidence: Increased general activity ([5]; 54 mg/day intranasal): 12/12***
- Clinical observation incidence: Salivation (out of normal) ([5]; 54 mg/day intranasal): 12/12***
- Clinical observation incidence: audible respiration ([5]; 54 mg/day intranasal): 6/12**
- Clinical observation incidence: bradypnoea ([5]; 54 mg/day intranasal): 12/12***
- mortality ([5]; up to 54 mg/day for 14 days): No test article related mortality
- maximum solubility expressed as base [6]: 180 mg esketamine base/mL
- histopathological lesions / neuronal necrosis in the brain [7]: absence of neuronal necrosis; also recorded: No histopathological lesions
